Test results taken from US10906876B2, “Tetrahydroisoquinolines as selective NADPH oxidase 2 inhibitors” (University of Pittsburgh—Of the Commonwealth System of …, priority 2013, dated 2021).
Read-outs that look alike come from different tables or passages of the source.

Experiments:
Nox2 = molecular target: T1, Nox2 (Homo sapiens, UniProt P04839); assay: Cell-free superoxide production in lysed COS-Nox2 cells / Nox2 cell homogenate, cytochrome C assay; format: biochemical
T1 construct: expressed in transfected cells
T1 sequence (P04839 2-570 limits assumed): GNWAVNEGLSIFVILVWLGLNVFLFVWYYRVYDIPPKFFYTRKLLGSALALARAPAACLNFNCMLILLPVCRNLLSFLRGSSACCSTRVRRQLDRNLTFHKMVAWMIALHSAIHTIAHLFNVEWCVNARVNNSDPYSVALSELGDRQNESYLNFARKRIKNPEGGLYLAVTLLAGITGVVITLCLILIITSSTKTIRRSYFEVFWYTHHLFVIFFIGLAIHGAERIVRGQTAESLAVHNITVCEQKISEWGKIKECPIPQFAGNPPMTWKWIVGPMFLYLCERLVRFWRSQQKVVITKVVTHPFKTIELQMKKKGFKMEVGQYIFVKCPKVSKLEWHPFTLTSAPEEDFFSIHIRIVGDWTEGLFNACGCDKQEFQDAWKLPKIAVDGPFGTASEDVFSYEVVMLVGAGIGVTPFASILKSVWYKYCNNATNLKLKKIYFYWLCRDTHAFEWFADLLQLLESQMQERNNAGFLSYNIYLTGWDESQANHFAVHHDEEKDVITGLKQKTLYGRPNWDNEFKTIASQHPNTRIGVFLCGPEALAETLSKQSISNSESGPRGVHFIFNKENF
Procedure: COS-Nox2, COS-Nox1/NOXO1/NOXA1 and COS-22 cells were suspended to a concentration of 5×10^7 cells/ml in ice-cold disruption buffer (8 mM potassium, sodium phosphate buffer pH 7.0, 131 mM NaCl, 340 mM sucrose, 2 mM NaN3, 5 mM MgCl2, 1 mM EGTA, 1 mM EDTA and protease inhibitor cocktail) (Price et al., Blood, 2002, 99:2653-2661; Molshanski-Mor et al., Methods Mol. Biol., 2007, 412:385-428). The cells were lysed by freeze/thaw cycles (5 cycles), and passed through a 30-gauge needle 5 times to further lyse the cells. Cell disruption was confirmed by phase contrast microscopy. The cell lysate was centrifuged at 1000×g for 10 min at 4° C. to remove unbroken cells, nuclei and debris. Throughout all procedures, extreme care was taken to maintain the lysate at a temperature close to 0° C. Superoxide (O2^•−) production was calculated from the initial linear rate (over 10 min) of SOD-inhibitable cytochrome c reduction quantified at 550 nm using the extinction coefficient of 21.1 mM^−1 cm^−1 (Biotek Synergy 4 Hybrid Multi-Mode Microplate Reader). The oxidase assay buffer consisted of 65 mM sodium phosphate buffer (pH 7.0), 1 mM EGTA, 10 μM FAD, 1 mM MgCl2, 2 mM NaN3 and 0.2 mM cytochrome C. The components of the cell-free system were added in the following order: oxidase assay buffer, cell lysate (5×10^5 cell equivalents/well) and drugs at a final concentration as shown on individual graphs. The plates were placed on an orbital shaker to mix contents for 5 min at 120 movements/min at room temperature. LiDS, an established lipid activator of phagocyte cell-free system, was added at a concentration of 130 μM and O2^•− production was initiated by the addition of 180 μM NADPH.
Cell-free activity in lysed COS-Nox2 cells was promising, since compound 7 was also able to inhibit O2^•− production in a system in which assembly of active Nox2 subunits is achieved by treatment with the anionic amphiphile LiDS (lithium dodecyl sulfate) and the reaction is initiated by cofactor NADPH (Molshanski-Mor et al., Methods Mol. Biol. 2007, 412:385-428). COS-Nox2 cell lysate was preincubated with various concentrations of compound 7 for 15 min at 25° C. After the addition of 130 μM LiDS, O2^•− production was initiated by the addition of 180 μM NADPH and measured by the initial linear rate of SOD-inhibitable cytochrome C reduction. O2^•− production is expressed as nmol O2^•−/min/10^7 cell equivalents.
Cells were suspended to a concentration of 5×10^7 cells/ml in ice-cold disruption buffer (8 mM potassium, sodium phosphate buffer pH 7.0, 131 mM NaCl, 340 mM sucrose, 2 mM NaN3, 5 mM MgCl2, 1 mM EGTA, 1 mM EDTA and protease inhibitor cocktail). The cells were lysed by freeze/thaw cycles (5 cycles), and passed through a 30-gauge needle five times to further lyse the cells. Cell disruption was confirmed by phase contrast microscopy. The cell lysate was centrifuged at 1000×g for 10 min at 4° C. to remove unbroken cells, nuclei and debris. Throughout all procedures, extreme care was taken to maintain the lysate at a temperature close to 0° C.
Superoxide (O2^•−) production from cell homogenates was calculated from the initial linear rate (over 10 min) of SOD-inhibitable cytochrome c reduction quantified at 550 nm using the extinction coefficient of 21.1 mM-1 cm-1 (Biotek Synergy 4 Hybrid Multi-Mode Microplate Reader). The oxidase assay buffer consisted of 65 mM sodium phosphate buffer (pH 7.0), 1 mM EGTA, 10 μM FAD, 1 mM MgCl2, 2 mM NaN3 and 0.2 mM cytochrome C.

human fibroblasts = assay: PMA-stimulated ROS production by human fibroblasts; format: cell-based; conditions: 10 μM compound
Procedure: (§1) Cos-Nox2, Cos-Nox1, human fibroblasts were cultured in DMEM, 10% FBS-supplemented media, human pulmonary artery endothelial cells were cultured in EBM2media containing growth factors (Lonza) and rat neonatal cardiomyocytes were cultured in DMEM/F12 (50/50) media supplemented with 5% horse serum, 100 μM BrdU and Insulin-Transferrin-Selenium (ITS, Gibco).
Compounds 11g and 11h also were evaluated for potential inhibitory activity in phorbol ester (PMA)-stimulated ROS production by human fibroblasts. As expected PMA, an activator of protein kinase C, stimulated superoxide production. This effect was attenuated by both compounds at a concentration of 10 μM (FIG. 11).

[1] = test system: rat neonatal cardiomyocytes; assay: ROS production of rat neonatal cardiomyocytes treated with high glucose; format: cell-based; conditions: 25 mM glucose, 25 μM compound
Procedure: as §1
(§2) To evaluate the pre-clinical potential of compounds 11g and 11h, the effects of high levels of glucose, which induce the generation of reactive oxygen species in cardiomyocytes and may contribute to the development of cardiomyopathy in diabetes, were evaluated. […] Furthermore, both compound 11g and compound 11h were able to reduce cardiomyocyte hypertrophy associated with high glucose challenge (FIG. 16).

[2] = test system: rat neonatal cardiomyocytes; assay: Hypertrophy of rat neonatal cardiomyocytes treated with high glucose; format: cell-based; conditions: 25 mM glucose, 25 μM compound
Procedure: as §1
Hypertrophy was assessed by measurement of cardiomyocytes length using ImageJ public domain software (developed by the National Institutes of Health).
as §2

[3] = cell-free system, data not shown, read-out: IC50 in a cell-free system

SMILES	IC50 (Nox2; [3])	PMA-stimulated superoxide production (human fibroblasts)	High glucose-dependent ROS production in rat cardiomyocytes [1]	Cardiomyocyte hypertrophy with high glucose challenge [2]	LiDS-stimulated O2•− generation (Nox2; 6.3 μM compound, lysed COS-Nox2 cells, 130 μM LiDS, 180 μM NADPH)	IC50 (Nox2; Nox2 cell homogenate stimulated with LiDS, read-out: IC50 in ROS production by Nox2 cell homogenate)	IC50 in cell homogenate lower than that for whole cells (Nox2; homogenate vs whole cells)
C=C(C)CC1C2c3c(Br)cccc3C(CC2(C)C)N1Cc1cccs1 (racemic) [Compound 11h, (±)-(1S,4R,9S)-5-Bromo-3,3-dimethyl-9-(2-methylallyl)-10-(thiophen-2-ylmethyl)-1,2,3,4-tetrahydro-1,4-(epiminomethano)naphthalene]	~30 nM	attenuated	ameliorated	reduce	–	–	–
C=C(C)CC1NC2CC(C)(C)C1c1c(Br)cccc12 (racemic) [Compound 7, (±)-(1S,4R,9S)-5-Bromo-3,3-dimethyl-9-(2-methylallyl)-1,2,3,4-tetrahydro-1,4-(epimino-methano)-naphthalene]	–	–	–	–	almost non-stimulated levels	–	–
C=C(C)CC1C2c3c(Br)cccc3C(CC2(C)C)N1CCCCC (racemic) [Compound 11g, (±)-(1S,4R,9S)-5-Bromo-3,3-dimethyl-9-(2-methylallyl-10-pentyl-1,2,3,4-tetrahydro-1,4-(epiminomethano)naphthalene]	~30 nM	attenuated	ameliorated	reduce	–	32.4 ± 9 nM	100 fold
